Test results reported in patent US8247211B2, “Glycopeptide antibiotics” (American Cyanamid Company, priority 2001, dated 2012).
Converted amounts (≈) assume the structure as drawn.

Columns and labels:
Assay in all cases: In vitro antibacterial evaluation: minimum inhibitory concentration (MIC), broth dilution method
Assay type in all cases: cell-based
Streptococcus sp. = system: Streptococcus sp.
Description: (§1) The minimum inhibitory concentration (MIC), the lowest concentration of the antibiotic which inhibits growth of the test organism, is determined by the broth dilution method using Muller-Hinton II […] (Baltimore Biological Laboratories) following the recommendations of the National Committee for Clinical Laboratory Standards [Methods for dilution antimicrobial susceptibility tests for bacteria that grow aerobically, approved standard M7-A2, National Committee for Clinical Laboratory Standards, Villanova, Pa].
(§2) An inoculum level of 5×10^5 CFU/mL, and a range of antibiotic concentrations (64-0.06 μg/mL) is used. […] The test organisms include a spectrum of Gram-positive bacteria comprised of Staphylococcus sp., Streptococcus sp. and Enterococcus sp. These organisms include recent clinical isolates that are resistant to methicillin, penicillin and/or vancomycin.

Staphylococcus sp. = conditions: broth dilution, 18 hours at 35° C.
Description: as §1, §2

Enterococcus sp. = system: Enterococcus sp.
Description: as §1, §2

Escherichia coli = system: Escherichia coli
Description: as §1, §2

COc1cccc(C2OC3C(OC4C(CO)OC(Oc5ccc(CC6NC(=O)C(C(C)c7ccccc7)NC(=O)CNC(=O)C(CO)NC(=O)C(C(O)C7CNC(=N)N7C7OC(CO)C(O)C(O)C7O)NC(=O)C(C(O)C7CNC(=N)N7)NC6=O)cc5)C(O)C4O)OC(CO)C(O)C3O2)c1 (single isomer, unassigned) [Example 137b, Cyclo[glycyl-β-methylphenylalanyl-O-[4-O-[2,3-O-(3-methoxybenzylidene)hexopyranosyl]-hexopyranosyl]tyrosyl-3-(2-iminoimidazolidin-4-yl)seryl-3-(3-hexopyranosyl-2-iminoimidazolidin-4-yl)serylseryl]]
MIC Streptococcus pneumoniae (ATCC 6301) (Streptococcus sp.; strain ATCC 6301): 2 µg/mL (≈ 1.42 µM)
MIC Streptococcus pneumoniae (GC 1894) (Streptococcus sp.; strain GC 1894): 1 µg/mL (≈ 0.708 µM)
MIC Streptococcus pyogenes (GC 4563) (Streptococcus sp.; strain GC 4563): 4 µg/mL (≈ 2.83 µM)
MIC Streptococcus agalactiae (GC 4564) (Streptococcus sp.; strain GC 4564): 4 µg/mL (≈ 2.83 µM)
MIC Streptococcus pneumoniae (GC 4565) (Streptococcus sp.; strain GC 4565): 2 µg/mL (≈ 1.42 µM)
MIC Coagulase Negative Staphylococcus (GC 4547) (Staphylococcus sp.; 5×10^5 CFU/mL): 8 µg/mL (≈ 5.66 µM)
MIC Coagulase Negative Staphylococcus (GC 4548) (Staphylococcus sp.; 5×10^5 CFU/mL): 4 µg/mL (≈ 2.83 µM)
MIC Coagulase Negative Staphylococcus (GC 4549) (Staphylococcus sp.; 5×10^5 CFU/mL): 8 µg/mL (≈ 5.66 µM)
MIC Coagulase Negative Staphylococcus (GC 4551) (Staphylococcus sp.; 5×10^5 CFU/mL): 8 µg/mL (≈ 5.66 µM)
MIC Coagulase Negative Staphylococcus (GC 6257) (Staphylococcus sp.; 5×10^5 CFU/mL): 4 µg/mL (≈ 2.83 µM)
MIC Staphylococcus aureus (ATCC 29213) (Staphylococcus sp.; 5×10^5 CFU/mL): 16 µg/mL (≈ 11.3 µM)
MIC Staphylococcus aureus (GC 1131) (Staphylococcus sp.; 5×10^5 CFU/mL): 16 µg/mL (≈ 11.3 µM)
MIC Staphylococcus aureus (GC 3051) (Staphylococcus sp.; 5×10^5 CFU/mL): 16 µg/mL (≈ 11.3 µM)
MIC Staphylococcus aureus (GC 3053) (Staphylococcus sp.; 5×10^5 CFU/mL): 16 µg/mL (≈ 11.3 µM)
MIC Staphylococcus aureus (GC 4541) (Staphylococcus sp.; 5×10^5 CFU/mL): 8 µg/mL (≈ 5.66 µM)
MIC Staphylococcus aureus (GC 4542) (Staphylococcus sp.; 5×10^5 CFU/mL): 16 µg/mL (≈ 11.3 µM)
MIC Staphylococcus aureus (GC 4544) (Staphylococcus sp.; 5×10^5 CFU/mL): 16 µg/mL (≈ 11.3 µM)
MIC Staphylococcus aureus (GC 4545) (Staphylococcus sp.; 5×10^5 CFU/mL): 16 µg/mL (≈ 11.3 µM)
MIC Staphylococcus aureus-SMITH (GC 4543) (Staphylococcus sp.; 5×10^5 CFU/mL): 8 µg/mL (≈ 5.66 µM)
MIC Staphylococcus haemolyticus (GC 4546) (Staphylococcus sp.; 5×10^5 CFU/mL): 8 µg/mL (≈ 5.66 µM)
MIC Staphylococcus aureus (ATCC 29213) (Staphylococcus sp.; strain ATCC 29213): 16 µg/mL (≈ 11.3 µM)
MIC Staphylococcus aureus (GC 1131) (Staphylococcus sp.; strain GC 1131): 16 µg/mL (≈ 11.3 µM)
MIC Staphylococcus aureus (GC 3051) (Staphylococcus sp.; strain GC 3051): 16 µg/mL (≈ 11.3 µM)
MIC Staphylococcus aureus (GC 3053) (Staphylococcus sp.; strain GC 3053): 16 µg/mL (≈ 11.3 µM)
MIC Staphylococcus aureus (GC 4541) (Staphylococcus sp.; strain GC 4541): 8 µg/mL (≈ 5.66 µM)
MIC Staphylococcus aureus (GC 4542) (Staphylococcus sp.; strain GC 4542): 16 µg/mL (≈ 11.3 µM)
MIC Staphylococcus aureus-SMITH (GC 4543) (Staphylococcus sp.; strain GC 4543): 8 µg/mL (≈ 5.66 µM)
MIC Staphylococcus aureus (GC 4544) (Staphylococcus sp.; strain GC 4544): 16 µg/mL (≈ 11.3 µM)
MIC Staphylococcus aureus (GC 4545) (Staphylococcus sp.; strain GC 4545): 16 µg/mL (≈ 11.3 µM)
MIC Staphylococcus haemolyticus (GC 4546) (Staphylococcus sp.; strain GC 4546): 8 µg/mL (≈ 5.66 µM)
MIC Coagulase Negative Staphylococcus (GC 4547) (Staphylococcus sp.; strain GC 4547): 8 µg/mL (≈ 5.66 µM)
MIC Coagulase Negative Staphylococcus (GC 4548) (Staphylococcus sp.; strain GC 4548): 4 µg/mL (≈ 2.83 µM)
MIC Coagulase Negative Staphylococcus (GC 4549) (Staphylococcus sp.; strain GC 4549): 8 µg/mL (≈ 5.66 µM)
MIC Coagulase Negative Staphylococcus (GC 4551) (Staphylococcus sp.; strain GC 4551): 8 µg/mL (≈ 5.66 µM)
MIC Coagulase Negative Staphylococcus (GC 6257) (Staphylococcus sp.; strain GC 6257): 4 µg/mL (≈ 2.83 µM)
MIC Enterococcus faecalis (ATCC 29212) (Enterococcus sp.; strain ATCC 29212): 32 µg/mL (≈ 22.6 µM)
MIC Enterococcus faecalis (GC 2242) (Enterococcus sp.; strain GC 2242): 32 µg/mL (≈ 22.6 µM)
MIC Enterococcus faecium (GC 2243) (Enterococcus sp.; strain GC 2243): 64 µg/mL (≈ 45.3 µM)
MIC Enterococcus faecalis (GC 2691) (Enterococcus sp.; strain GC 2691): 32 µg/mL (≈ 22.6 µM)
MIC Enterococcus faecalis (GC 3059) (Enterococcus sp.; strain GC 3059): 64 µg/mL (≈ 45.3 µM)
MIC Enterococcus faecalis (GC 4552) (Enterococcus sp.; strain GC 4552): 32 µg/mL (≈ 22.6 µM)
MIC Enterococcus faecalis (GC 4553) (Enterococcus sp.; strain GC 4553): 32 µg/mL (≈ 22.6 µM)
MIC Enterococcus faecalis (GC 4554) (Enterococcus sp.; strain GC 4554): 64 µg/mL (≈ 45.3 µM)
MIC Enterococcus faecium (GC 4556) (Enterococcus sp.; strain GC 4556): 32 µg/mL (≈ 22.6 µM)
MIC Enterococcus faecium (GC 4557) (Enterococcus sp.; strain GC 4557): 8 µg/mL (≈ 5.66 µM)
MIC Enterococcus avium (GC 4558) (Enterococcus sp.; strain GC 4558): 32 µg/mL (≈ 22.6 µM)
MIC Enterococcus faecalis (GC 6189) (Enterococcus sp.; strain GC 6189): 32 µg/mL (≈ 22.6 µM)
MIC Escherichia coli (ATCC 25922) (Escherichia coli; strain ATCC 25922): >64 µg/mL
MIC Escherichia coli (GC 4559) (Escherichia coli; strain GC 4559): >64 µg/mL
MIC Escherichi coli (GC 4560) (Escherichia coli; strain GC 4560): 4 µg/mL (≈ 2.83 µM)
